# Key:
# Format in all cases: biochemical
# p300 [1] = biological target: T1, p300 (Homo sapiens, UniProt Q09472); experiment: MALDI-TOF analysis of p300-catalyzed acylation of histone H3 peptide in vitro; conditions: 20 μM analog, MS analysis
# T1 construct: made in house; host or cells: SF9 insect cells, baculovirus
# Protocol: Cells were lysed in lysis buffer (20 mM Tris, pH 7.5, 500 mM NaCl, 4 mM MgCl2, 0.4 mM EDTA, 20% glycerol, 2 mM DTT, and supplemented with protease inhibitors). Clarified cell lysates were diluted to 300 mM NaCl, and NP-40 was added to 0.1% final concentration. Flag M2 agarose resin (Sigma) was added to the lysate and incubated for 4 hours at 4° C. […] Protein concentration and purity were estimated by comparison to BSA standards on SDS gels stained with Gelcode Blue stain (Pierce).
# p300 [2] = biological target: T1, p300; experiment: In vitro acylation of histone H3 protein by p300 and mapping of modification sites (spectral counts, nano-HPLC/MS/MS)
# Protocol: Following the in vitro reaction, proteins were separated on 15% SDS-PAGE and stained with coomassie brilliant blue R-250 staining solution (Bio-Rad). The gel slices containing histone H3 products were excised from each lane, washed with 50 mM ammonium bicarbonate (ABC) twice, destained with 50 mM ABC/CH3CN (50/50) twice and dehydrated with CH3CN. After drying the gel slices in a SpeedVac, gel slices were rehydrated with trypsin solution (2 μg of trypsin for each vial/gel slice) and incubated in 37° C. water bath for 18 hrs. Trypsin-digested peptides in solution were collected, dried in SpeedVac, resuspended in H2O (with 0.1% TFA) and submitted samples to nano-HPLC/MS/MS analysis (Thermo LTQ-Orbitrap in the Proteomic Resource Center at Rockefeller University).
# LC-MS analysis was performed with a Dionex 3000 nano-HPLC coupled to an LTQ-Orbitrap ion trap mass spectrometer (ThermoFisher). Peptides were pressure loaded onto a home made 75 μm diameter, 15 cm C18 reverse phase column and separated with a gradient running from 95% buffer A (HPLC water with 0.1% formic acid) and 5% buffer B (HPLC grade acetonitrile with 0.1% formic acid) to 55% B over 30 min, next ramping to 95% B over 10 min and holding 95% B for 10 min. One full MS scan (300-2000 MW) was followed by 3 data dependent scans of the nth most intense ions with dynamic exclusion enabled. The spray voltage was set to 1.94 kV and the flow rate through the column was set to 0.25 μL/min.
# Raw tandem mass spectra were searched against the human IPI protein database version 3.56 using SEQUEST search engine (Thermo Scientific). Cysteine carbamido-methylation was searched as fixed modification, while methionine/tryptophan oxidation, asparagines/glutamine deamindation, lysine/serine/threonine/cysteine acetylation, N-terminal acetylation/3-butynylation/4-pentynylation/5-hexynylation and lysine 3-butynylation/4-pentynylation/5-hexynylation were searched as variable modifications. Peptide tolerance was set as 10.0 ppm, fragment ion tolerance was set as 1.0 AMU and trypsin was set as the digestion enzyme. The resulting searching files were then analyzed and visualized by Scaffold 2 proteome software.
# Each identified protein must contain at least 2 unique peptides that are exclusively assigned to this protein with a minimum protein identification probability of 99%. Each peptide spectrum must meet several selection thresholds including >95% for peptide identification probability, >1.0 for SEQUEST XCorr score, and ±6 ppm for actual minus calculated peptide mass.
# p300 [3] = biological target: T1, p300; experiment: In-gel fluorescent detection of p300-catalyzed in vitro acylation of histone H3; conditions: CuAAC with az-Rho, in-gel fluorescence
# From the text: CuAAC reactions were allowed to proceed at room temperature for 1 hr, and proteins were subsequently separated on 15% SDS-PAGE. The gels were soaked in destaining solution (40% MeOH, 10% AcOH, 50% H2O) for 1-2 hrs to remove the non-covalently bound az-Rho dye. After washing with dd H2O, the gel was subjected to in-gel fluorescence scanning.
# [4] = lysine-modified peptide, H3 + acyl-CoA + p300
# [5] = lysine-modified peptide, H3 + acyl-CoA, without p300
# T1 sequence (Q09472 whole entry): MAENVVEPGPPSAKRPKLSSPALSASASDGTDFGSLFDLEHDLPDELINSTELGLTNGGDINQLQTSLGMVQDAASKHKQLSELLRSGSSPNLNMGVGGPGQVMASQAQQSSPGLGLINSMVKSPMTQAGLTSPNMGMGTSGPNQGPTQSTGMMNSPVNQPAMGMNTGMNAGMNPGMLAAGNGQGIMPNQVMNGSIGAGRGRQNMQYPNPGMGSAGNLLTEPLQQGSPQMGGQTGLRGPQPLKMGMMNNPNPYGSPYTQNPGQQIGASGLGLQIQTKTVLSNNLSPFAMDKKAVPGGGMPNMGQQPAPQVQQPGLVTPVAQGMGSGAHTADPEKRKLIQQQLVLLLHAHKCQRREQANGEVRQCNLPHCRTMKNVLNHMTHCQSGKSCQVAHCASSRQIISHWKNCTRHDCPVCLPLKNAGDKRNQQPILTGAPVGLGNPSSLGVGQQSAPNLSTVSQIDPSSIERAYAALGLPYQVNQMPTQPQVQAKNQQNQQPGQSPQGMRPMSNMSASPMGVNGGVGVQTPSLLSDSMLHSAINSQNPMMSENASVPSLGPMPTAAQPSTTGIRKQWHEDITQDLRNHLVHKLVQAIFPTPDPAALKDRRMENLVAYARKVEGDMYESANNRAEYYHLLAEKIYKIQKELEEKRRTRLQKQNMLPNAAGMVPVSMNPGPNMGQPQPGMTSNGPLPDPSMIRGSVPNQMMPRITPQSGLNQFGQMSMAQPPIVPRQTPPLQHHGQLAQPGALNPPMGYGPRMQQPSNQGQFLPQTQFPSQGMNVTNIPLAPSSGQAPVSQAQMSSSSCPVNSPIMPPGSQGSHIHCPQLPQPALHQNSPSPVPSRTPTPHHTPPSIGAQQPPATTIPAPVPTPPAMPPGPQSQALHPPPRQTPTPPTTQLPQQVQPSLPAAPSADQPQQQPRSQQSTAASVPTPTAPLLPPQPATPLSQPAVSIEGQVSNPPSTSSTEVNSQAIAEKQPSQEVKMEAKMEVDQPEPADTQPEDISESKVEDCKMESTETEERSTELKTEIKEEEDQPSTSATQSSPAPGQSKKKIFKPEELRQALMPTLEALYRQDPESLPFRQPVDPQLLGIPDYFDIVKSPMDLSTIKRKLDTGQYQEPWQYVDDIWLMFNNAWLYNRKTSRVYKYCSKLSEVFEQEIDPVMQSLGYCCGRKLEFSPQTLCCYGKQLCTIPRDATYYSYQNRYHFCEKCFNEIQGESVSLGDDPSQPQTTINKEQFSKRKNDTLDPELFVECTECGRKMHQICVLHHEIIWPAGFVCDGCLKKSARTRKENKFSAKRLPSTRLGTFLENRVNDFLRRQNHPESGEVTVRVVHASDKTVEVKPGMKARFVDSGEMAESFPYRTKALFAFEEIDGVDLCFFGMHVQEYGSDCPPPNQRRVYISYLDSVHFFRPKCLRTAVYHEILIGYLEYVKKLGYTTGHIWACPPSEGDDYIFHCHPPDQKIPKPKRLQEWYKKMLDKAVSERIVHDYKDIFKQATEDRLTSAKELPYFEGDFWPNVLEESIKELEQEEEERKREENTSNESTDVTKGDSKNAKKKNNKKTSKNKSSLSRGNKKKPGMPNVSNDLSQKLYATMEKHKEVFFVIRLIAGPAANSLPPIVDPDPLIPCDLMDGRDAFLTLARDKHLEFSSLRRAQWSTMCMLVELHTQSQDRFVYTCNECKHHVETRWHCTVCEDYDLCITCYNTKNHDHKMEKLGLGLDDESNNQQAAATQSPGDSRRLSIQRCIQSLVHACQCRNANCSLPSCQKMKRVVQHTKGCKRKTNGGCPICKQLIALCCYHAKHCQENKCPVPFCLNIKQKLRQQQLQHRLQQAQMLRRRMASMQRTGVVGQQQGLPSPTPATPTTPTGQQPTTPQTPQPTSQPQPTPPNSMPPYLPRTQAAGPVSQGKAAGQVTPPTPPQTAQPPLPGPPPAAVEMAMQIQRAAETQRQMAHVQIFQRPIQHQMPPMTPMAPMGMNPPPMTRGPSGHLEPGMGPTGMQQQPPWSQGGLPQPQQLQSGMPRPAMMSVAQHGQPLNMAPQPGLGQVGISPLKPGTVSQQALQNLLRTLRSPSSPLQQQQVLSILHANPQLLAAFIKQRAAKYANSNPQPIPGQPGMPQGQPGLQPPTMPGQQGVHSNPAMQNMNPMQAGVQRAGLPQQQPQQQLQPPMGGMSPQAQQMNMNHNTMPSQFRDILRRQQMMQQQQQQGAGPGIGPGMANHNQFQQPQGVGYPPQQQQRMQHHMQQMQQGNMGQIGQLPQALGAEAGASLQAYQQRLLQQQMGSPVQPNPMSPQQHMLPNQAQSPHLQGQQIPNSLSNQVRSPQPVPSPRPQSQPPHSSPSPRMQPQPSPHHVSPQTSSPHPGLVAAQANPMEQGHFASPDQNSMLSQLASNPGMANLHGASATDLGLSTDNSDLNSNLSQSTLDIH
substance,measurement,setting,value
5-hexynyl-CoA [Analog 3],utilization as acyl-CoA donor for p300-catalyzed acylation of histone H3 peptide,p300 [1],less efficient acyl-donor substrate
same,Spectral Counts of Peptide EIAQDFK (73-79) (SEQ ID NO: 7),p300 [2]; H3 + acyl-CoA + p300,89
same,Spectral Counts of Peptide KLPFQR (64-69) (SEQ ID NO: 6),p300 [2]; H3 + acyl-CoA + p300,8
same,Spectral Counts of Peptide KQLATK (18-23) (SEQ ID NO: 1),p300 [2]; H3 + acyl-CoA + p300,10
same,Spectral Counts of Peptide KSAPATGGVK (27-36) (SEQ ID NO: 2),p300 [2]; H3 + acyl-CoA + p300,38
same,Spectral Counts of Peptide SAPATGGVK (28-36) SEQ ID NO: 3,p300 [2]; H3 + acyl-CoA + p300,17
same,Spectral Counts of Peptide STELLIR (57-63) (SEQ ID NO: 5),p300 [2]; H3 + acyl-CoA + p300,16
same,Spectral Counts of Peptide VTIMPK (117-122) (SEQ ID NO: 9),p300 [2]; H3 + acyl-CoA + p300,8
same,Spectral Counts of Peptide YRPGTVALR (41-49) (SEQ ID NO: 4),p300 [2]; H3 + acyl-CoA + p300,57
same,Spectral Counts of Peptide EIAQDFK (73-79) (SEQ ID NO: 7),"p300 [2]; H3 + acyl-CoA, without p300",74
same,Spectral Counts of Peptide KQLATK (18-23) (SEQ ID NO: 1),"p300 [2]; H3 + acyl-CoA, without p300",4
same,Spectral Counts of Peptide KSAPATGGVK (27-36) (SEQ ID NO: 2),"p300 [2]; H3 + acyl-CoA, without p300",36
same,Spectral Counts of Peptide RVTIMPK (116-122) (SEQ ID NO: 8),"p300 [2]; H3 + acyl-CoA, without p300",1
same,Spectral Counts of Peptide SAPATGGVK (28-36) SEQ ID NO: 3,"p300 [2]; H3 + acyl-CoA, without p300",12
same,Spectral Counts of Peptide STELLIR (57-63) (SEQ ID NO: 5),"p300 [2]; H3 + acyl-CoA, without p300",7
same,Spectral Counts of Peptide VTIMPK (117-122) (SEQ ID NO: 9),"p300 [2]; H3 + acyl-CoA, without p300",3
same,Spectral Counts of Peptide YRPGTVALR (41-49) (SEQ ID NO: 4),"p300 [2]; H3 + acyl-CoA, without p300",47
same,"Spectral Counts of Peptide KQLATK (18-23, K18) (SEQ ID NO: 13)",p300 [2]; [4],19
same,"Spectral Counts of Peptide KQLATKAAR (18-26, K18, K23) (SEQ ID NO: 15)",p300 [2]; [4],18
same,"Spectral Counts of Peptide KSAPATGGVK (27-36, K27) (SEQ ID NO: 17)",p300 [2]; [4],12
same,"Spectral Counts of Peptide KSTGGKAPR (9-17, K9, K14) (SEQ ID NO: 11)",p300 [2]; [4],2
same,"Spectral Counts of Peptide KSTGGKAPR (9-17, K14) (SEQ ID NO: 10)",p300 [2]; [4],11
same,"Spectral Counts of Peptide QLATKAAR (19-26, K23) (SEQ ID NO: 16)",p300 [2]; [4],1
same,"Spectral Counts of Peptide KQLATK (18-23, K18) (SEQ ID NO: 13)",p300 [2]; [5],2
same,"Spectral Counts of Peptide KSAPATGGVK (27-36, K27) (SEQ ID NO: 17)",p300 [2]; [5],2
same,"Spectral Counts of Peptide KSTGGKAPR (9-17, K14) (SEQ ID NO: 10)",p300 [2]; [5],2
same,visualization of p300-acylation of histone H3,p300 [3],serve as sensitive reagents for visualizing p300-acylation of histone H3

# — patent US20100203647A1, “Chemical Reporters of Protein Acylation” (THE ROCKEFELLER UNIVERSITY, priority 2008, published 2010)
